Experimental data taken from ChEMBL document CHEMBL1201862, “PubChem BioAssay data set” (2004).
Activity calls are given as the source filed them.

Assays:
[1] = target: T1, Voltage-gated N-type calcium channel alpha-1B subunit/Amyloid beta A4 precursor protein-binding family A member 1 (Homo sapiens, UniProt Q00975+Q02410); test: disruptors of Mint-PDZ/N-type channel peptide interaction – biochemical, HTRF, set 2, SAR follow-up (AID 434980); format: functional
[2] = target: T1, Voltage-gated N-type calcium channel alpha-1B subunit/Amyloid beta A4 precursor protein-binding family A member 1; test: disruptors of Mint-PDZ/N-type channel peptide interaction – biochemical, HTRF, SAR follow-up (AID 2489); format: functional
[3] = target: Phosphoethanolamine/phosphocholine phosphatase (Homo sapiens, UniProt Q8TCT1); test: SAR assay for compounds that inhibit PHOSPHO1. [Related pubchem assays (depositor defined):AID1545, AID1565, AID1574]
Sequence of Phosphoethanolamine/phosphocholine phosphatase (Q8TCT1 whole entry): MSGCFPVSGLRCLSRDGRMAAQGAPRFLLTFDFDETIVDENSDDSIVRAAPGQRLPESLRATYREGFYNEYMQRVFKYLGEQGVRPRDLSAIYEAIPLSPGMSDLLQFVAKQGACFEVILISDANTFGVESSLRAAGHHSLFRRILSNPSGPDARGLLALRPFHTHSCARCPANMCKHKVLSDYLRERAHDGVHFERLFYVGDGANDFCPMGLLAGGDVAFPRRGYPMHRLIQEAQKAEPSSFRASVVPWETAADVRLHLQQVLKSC

[4] = target: Phosphomannomutase 2 (Homo sapiens, UniProt O15305); test: Counter screen SAR assay for PMM2 inhibitors via a fluorescence intensity assay. [Related pubchem assays (depositor defined):AID1545, AID1574]
Sequence of Phosphomannomutase 2 (O15305 whole entry): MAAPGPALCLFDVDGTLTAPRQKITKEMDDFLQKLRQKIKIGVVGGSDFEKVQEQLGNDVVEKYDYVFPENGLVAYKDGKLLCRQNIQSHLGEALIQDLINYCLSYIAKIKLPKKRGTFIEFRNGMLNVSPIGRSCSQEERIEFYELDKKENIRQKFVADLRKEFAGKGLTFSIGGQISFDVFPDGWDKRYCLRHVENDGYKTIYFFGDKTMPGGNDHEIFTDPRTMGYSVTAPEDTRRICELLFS

[5] = target: T2, Mannose-6-phosphate isomerase (Homo sapiens, UniProt P34949); test: PMI enzyme inhibitors, confirmation, biochemical, fluorescence intensity (AID 1535)
T2 sequence (P34949 whole entry): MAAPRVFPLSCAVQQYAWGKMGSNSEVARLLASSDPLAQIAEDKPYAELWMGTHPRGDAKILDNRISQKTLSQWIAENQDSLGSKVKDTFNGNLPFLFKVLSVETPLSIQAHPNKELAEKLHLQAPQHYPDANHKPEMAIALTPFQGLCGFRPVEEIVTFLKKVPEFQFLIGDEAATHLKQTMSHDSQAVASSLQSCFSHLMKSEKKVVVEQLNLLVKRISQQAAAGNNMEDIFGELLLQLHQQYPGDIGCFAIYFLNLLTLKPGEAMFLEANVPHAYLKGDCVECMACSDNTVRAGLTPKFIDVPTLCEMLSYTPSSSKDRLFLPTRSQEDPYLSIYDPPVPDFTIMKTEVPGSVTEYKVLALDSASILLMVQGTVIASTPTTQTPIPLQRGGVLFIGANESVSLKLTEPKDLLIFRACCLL

[6] = target: Eukaryotic translation initiation factor 4E (Mus musculus, UniProt P63073); test: eIF4E–eIF4G protein interaction inhibitors, dose response, biochemical, TR-FRET (AID 855); format: functional;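 note: potency for disrupting eIF4E binding to eIF4GI seen as loss of FRET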
[7] = target: T3, Neuropeptides B/W receptor type 1 (Homo sapiens, UniProt P48145); test: GPR7 antagonist potency, late-stage follow-up, cell-based, fluorescence, dose response (AID 463251); format: functional
T3 sequence (P48145 whole entry): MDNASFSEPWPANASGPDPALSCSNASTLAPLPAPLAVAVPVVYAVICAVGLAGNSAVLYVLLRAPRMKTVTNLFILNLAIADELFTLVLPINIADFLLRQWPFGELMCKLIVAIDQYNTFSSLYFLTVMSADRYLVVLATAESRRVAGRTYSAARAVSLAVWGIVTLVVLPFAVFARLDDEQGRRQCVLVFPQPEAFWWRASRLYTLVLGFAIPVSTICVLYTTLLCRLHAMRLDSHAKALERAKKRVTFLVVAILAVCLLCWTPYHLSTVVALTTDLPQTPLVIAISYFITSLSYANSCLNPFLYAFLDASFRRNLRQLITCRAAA

[8] = target: Melanin-concentrating hormone receptor 1 (Homo sapiens, UniProt Q99705); test: Late-stage fluorescence-based counterscreen for antagonists of the G-protein coupled receptor 7 (GPR7): cell-based dose response assay to identify antagonists of the melanin-concentrating hormone receptor 1 (MCHR1). [Related pubchem assays (depositor defined):AID1861, AID1880, AID1952, AID2148, AID2251, AID2257, AID485339]; format: functional;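 note: stimulated with 30 nM MCH peptide agonist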
Sequence of Melanin-concentrating hormone receptor 1 (Q99705 whole entry): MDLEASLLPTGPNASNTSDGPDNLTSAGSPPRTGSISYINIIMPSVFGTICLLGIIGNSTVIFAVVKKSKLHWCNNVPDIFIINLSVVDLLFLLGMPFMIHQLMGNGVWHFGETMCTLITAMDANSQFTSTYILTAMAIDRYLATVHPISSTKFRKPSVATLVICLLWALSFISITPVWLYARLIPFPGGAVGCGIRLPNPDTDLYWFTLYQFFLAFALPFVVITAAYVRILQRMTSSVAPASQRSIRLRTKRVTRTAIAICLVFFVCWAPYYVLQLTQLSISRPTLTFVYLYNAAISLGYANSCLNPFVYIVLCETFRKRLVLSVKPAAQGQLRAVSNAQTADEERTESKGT

[9] = CRF-BP/CRF-R2 complex antagonists, dose response, cell-based, uHTS hits, 384-well (AID 651639); format: functional, Homo sapiens; details: read-out: IC50_Mean
[10] = Luminescence Cell-Based Dose Response HTS to Identify Activators of Luciferase Translation or Activity in H4 […] Cells. [Related pubchem assays: 1829 (Project Summary), 1814 (Primary HTS)]; format: functional
[11] = system: H4; test: Luminescence Cell-Based Dose Response HTS to Identify Activators of 5'UTR Stem-Loop Driven Prion Protein mRNA Translation in H4 Neuroglioblastoma Cells. [Related pubchem assays: 1829 (Project Summary), 1814 (Primary HTS)]; format: functional; details: Homo sapiens
[12] = target: T4, Corticotropin-releasing factor receptor 2/Corticotropin-releasing factor-binding protein (Homo sapiens, UniProt P24387+Q13324); test: activators of CRF receptor 2 with binding protein – uHTS hits, confirmation (AID 602473); format: functional; details: read-out: EC50_Mean
T4 sequence (Q13324 whole entry): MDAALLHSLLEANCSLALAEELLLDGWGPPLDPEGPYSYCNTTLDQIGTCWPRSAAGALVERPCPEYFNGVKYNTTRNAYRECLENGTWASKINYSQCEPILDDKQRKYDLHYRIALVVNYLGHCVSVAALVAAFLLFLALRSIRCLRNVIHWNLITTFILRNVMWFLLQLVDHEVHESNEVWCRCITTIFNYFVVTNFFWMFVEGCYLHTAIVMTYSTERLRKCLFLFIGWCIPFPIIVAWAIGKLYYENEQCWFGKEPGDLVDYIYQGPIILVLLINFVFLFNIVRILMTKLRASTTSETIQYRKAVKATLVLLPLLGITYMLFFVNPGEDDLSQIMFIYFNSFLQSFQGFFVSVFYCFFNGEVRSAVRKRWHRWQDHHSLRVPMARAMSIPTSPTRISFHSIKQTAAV
T4 sequence (P24387 whole entry): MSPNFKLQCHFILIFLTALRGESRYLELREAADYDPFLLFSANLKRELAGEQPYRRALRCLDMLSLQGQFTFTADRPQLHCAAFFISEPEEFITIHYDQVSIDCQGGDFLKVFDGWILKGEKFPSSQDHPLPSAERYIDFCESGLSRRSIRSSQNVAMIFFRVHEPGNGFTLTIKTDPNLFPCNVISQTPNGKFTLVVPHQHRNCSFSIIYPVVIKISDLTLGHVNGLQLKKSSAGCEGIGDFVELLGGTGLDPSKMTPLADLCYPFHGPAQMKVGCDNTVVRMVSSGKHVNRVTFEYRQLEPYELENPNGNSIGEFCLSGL

[13] = target: Envelope glycoprotein gp160 (Human immunodeficiency virus 1, UniProt Q6QLK5); test: inhibitors of HIV fusion peptide binding, primary screen, biochemical, uHTS, fluorescence dequenching (AID 1986)
[14] = target: T4, Corticotropin-releasing factor receptor 2/Corticotropin-releasing factor-binding protein; test: Dose Response confirmation of uHTS hits for small molecule antagonists of the CRF-binding protein and CRF-R2 receptor complex.; format: functional; details: read-out: IC50_Mean
[15] = Luminescence Cell-Based Dose Confirmation HTS to Identify Activators of 5'UTR Stem-Loop Driven Alpha-Synuclein mRNA Translation in H4 Neuroglioblastoma Cells. [Related pubchem assays: 1829 (Project Summary), 1814 (Primary HTS)]; format: functional
[16] = target: NACHT, LRR and PYD domains-containing protein 3 (Homo sapiens, UniProt Q96P20); test: NALP3 inhibitors in yeast, dose response, luminescent (AID 488799); format: functional
Sequence of NACHT, LRR and PYD domains-containing protein 3 (Q96P20 whole entry, the tested form may be a part): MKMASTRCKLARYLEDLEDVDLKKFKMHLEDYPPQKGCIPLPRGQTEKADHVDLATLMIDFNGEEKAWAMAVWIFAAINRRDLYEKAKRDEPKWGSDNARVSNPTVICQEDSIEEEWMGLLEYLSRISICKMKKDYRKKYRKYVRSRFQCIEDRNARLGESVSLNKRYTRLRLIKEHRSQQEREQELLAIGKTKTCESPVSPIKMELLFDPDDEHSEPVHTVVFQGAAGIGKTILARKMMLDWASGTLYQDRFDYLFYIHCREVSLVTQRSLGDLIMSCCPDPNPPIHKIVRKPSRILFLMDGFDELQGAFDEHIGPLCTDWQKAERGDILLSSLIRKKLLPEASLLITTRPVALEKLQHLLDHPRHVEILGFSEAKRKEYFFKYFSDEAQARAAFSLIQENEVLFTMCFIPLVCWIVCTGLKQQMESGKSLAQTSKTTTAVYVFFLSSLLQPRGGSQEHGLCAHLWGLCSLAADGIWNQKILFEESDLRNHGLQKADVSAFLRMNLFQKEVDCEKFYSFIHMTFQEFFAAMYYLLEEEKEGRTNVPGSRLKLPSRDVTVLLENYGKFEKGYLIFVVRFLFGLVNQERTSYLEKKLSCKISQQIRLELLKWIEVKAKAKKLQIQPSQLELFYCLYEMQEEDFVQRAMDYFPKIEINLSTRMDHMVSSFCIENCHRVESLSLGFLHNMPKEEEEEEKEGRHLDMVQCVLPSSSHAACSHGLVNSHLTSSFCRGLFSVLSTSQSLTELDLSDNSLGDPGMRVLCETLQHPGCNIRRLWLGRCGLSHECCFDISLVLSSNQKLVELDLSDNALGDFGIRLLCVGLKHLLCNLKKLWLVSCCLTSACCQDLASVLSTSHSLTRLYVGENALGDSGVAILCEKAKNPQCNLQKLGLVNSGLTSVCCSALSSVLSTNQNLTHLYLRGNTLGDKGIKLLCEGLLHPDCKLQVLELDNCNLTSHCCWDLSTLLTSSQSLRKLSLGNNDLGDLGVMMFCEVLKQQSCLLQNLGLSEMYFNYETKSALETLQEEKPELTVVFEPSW

[17] = C. albicans growth with fluconazole, confirmation, fluorescence, retest (AID 2467); format: functional, cell-based
[18] = target: T5, Histone-lysine N-methyltransferase NSD2 (Homo sapiens, UniProt O96028); format: biochemical
T5 sequence (O96028 whole entry): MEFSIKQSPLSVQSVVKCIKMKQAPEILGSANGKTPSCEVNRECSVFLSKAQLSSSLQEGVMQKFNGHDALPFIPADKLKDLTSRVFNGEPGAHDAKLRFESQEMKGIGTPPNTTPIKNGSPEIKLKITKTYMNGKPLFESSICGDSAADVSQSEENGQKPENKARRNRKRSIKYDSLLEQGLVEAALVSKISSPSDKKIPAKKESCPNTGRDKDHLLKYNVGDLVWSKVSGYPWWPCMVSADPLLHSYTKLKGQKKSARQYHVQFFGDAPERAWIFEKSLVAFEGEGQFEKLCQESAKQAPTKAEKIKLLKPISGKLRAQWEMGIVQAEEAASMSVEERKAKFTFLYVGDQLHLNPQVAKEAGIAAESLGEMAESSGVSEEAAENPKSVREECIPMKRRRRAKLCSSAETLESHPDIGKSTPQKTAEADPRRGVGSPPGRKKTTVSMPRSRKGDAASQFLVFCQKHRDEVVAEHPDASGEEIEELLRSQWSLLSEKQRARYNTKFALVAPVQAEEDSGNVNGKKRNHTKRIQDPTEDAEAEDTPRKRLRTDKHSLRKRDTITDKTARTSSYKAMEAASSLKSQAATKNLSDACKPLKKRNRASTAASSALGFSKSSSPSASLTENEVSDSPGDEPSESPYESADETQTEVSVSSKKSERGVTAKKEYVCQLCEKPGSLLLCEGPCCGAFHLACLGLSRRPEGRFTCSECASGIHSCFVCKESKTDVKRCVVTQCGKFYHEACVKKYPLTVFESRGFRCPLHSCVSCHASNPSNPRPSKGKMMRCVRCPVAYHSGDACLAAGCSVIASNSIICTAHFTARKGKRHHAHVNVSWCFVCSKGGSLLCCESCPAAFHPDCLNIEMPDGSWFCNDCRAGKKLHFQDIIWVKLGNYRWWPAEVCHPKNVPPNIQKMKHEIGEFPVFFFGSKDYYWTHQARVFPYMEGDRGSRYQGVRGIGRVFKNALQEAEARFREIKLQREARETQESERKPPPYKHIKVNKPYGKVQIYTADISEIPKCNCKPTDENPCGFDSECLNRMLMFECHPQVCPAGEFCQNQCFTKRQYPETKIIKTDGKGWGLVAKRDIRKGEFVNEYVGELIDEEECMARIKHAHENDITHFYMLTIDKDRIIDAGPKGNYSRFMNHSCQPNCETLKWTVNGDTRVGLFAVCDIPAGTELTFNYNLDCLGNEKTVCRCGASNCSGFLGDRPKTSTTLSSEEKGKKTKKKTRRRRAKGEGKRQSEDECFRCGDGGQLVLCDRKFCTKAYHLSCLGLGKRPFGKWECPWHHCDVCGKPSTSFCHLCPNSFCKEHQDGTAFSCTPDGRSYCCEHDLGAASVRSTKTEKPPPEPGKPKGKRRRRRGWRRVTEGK

[19] = human group III sPLA2 inhibitors, dose response, biochemical, QFRET, IC50 (AID 743457);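 note: green fluorescence rise as the enzyme cleaves BODIPY PC-A2 in liposomes; potency for inhibition of the enzyme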
[20] = THP-1 cell cytotoxicity, dose response, cytotoxicity control for Vif-APOBEC3G degradation inhibitor project, THP-1 cells (AID 1117359); format: functional; details: Human immunodeficiency virus 1, THP-1
[21] = target: T6, Bcl-2-like protein 10 (Homo sapiens, UniProt Q9HD36); test: displacers of TR3 peptide from Bcl-B, primary screen, selectivity assay for Bfl-1 inhibitor project, biochemical, fluorescence polarization, FITC-TR3 peptide (AID 748);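 note: fluorescence polarization from a fluorescein-labelled TR3 peptide binding purified Bcl-B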
T6 sequence (Q9HD36 whole entry): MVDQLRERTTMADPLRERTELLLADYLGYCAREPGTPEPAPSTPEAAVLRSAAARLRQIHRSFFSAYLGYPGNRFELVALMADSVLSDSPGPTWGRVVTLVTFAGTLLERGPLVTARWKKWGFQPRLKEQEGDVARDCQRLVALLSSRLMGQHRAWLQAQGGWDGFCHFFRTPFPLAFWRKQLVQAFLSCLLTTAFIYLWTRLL

[22] = target: T7, Protein Tat (Human immunodeficiency virus type 1 group M subtype B (isolate HXB2)(HIV-1), UniProt P04608); format: functional;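 note: tat binding to TAR RNA read out by fluorescence polarization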
T7 sequence (P04608 whole entry): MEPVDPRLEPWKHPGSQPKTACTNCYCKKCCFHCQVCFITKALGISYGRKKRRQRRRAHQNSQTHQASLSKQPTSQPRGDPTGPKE

[23] = NIH-3T3 fibroblast cytotoxicity, dose response, cytotoxicity control, cell-based, fluorescence, Alamar Blue, secondary assay (AID 2327); format: functional;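 note: NIH-3T3 mouse fibroblasts cultured with fluconazole at 8 µg/mL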

T1 sequence (Q00975 whole entry): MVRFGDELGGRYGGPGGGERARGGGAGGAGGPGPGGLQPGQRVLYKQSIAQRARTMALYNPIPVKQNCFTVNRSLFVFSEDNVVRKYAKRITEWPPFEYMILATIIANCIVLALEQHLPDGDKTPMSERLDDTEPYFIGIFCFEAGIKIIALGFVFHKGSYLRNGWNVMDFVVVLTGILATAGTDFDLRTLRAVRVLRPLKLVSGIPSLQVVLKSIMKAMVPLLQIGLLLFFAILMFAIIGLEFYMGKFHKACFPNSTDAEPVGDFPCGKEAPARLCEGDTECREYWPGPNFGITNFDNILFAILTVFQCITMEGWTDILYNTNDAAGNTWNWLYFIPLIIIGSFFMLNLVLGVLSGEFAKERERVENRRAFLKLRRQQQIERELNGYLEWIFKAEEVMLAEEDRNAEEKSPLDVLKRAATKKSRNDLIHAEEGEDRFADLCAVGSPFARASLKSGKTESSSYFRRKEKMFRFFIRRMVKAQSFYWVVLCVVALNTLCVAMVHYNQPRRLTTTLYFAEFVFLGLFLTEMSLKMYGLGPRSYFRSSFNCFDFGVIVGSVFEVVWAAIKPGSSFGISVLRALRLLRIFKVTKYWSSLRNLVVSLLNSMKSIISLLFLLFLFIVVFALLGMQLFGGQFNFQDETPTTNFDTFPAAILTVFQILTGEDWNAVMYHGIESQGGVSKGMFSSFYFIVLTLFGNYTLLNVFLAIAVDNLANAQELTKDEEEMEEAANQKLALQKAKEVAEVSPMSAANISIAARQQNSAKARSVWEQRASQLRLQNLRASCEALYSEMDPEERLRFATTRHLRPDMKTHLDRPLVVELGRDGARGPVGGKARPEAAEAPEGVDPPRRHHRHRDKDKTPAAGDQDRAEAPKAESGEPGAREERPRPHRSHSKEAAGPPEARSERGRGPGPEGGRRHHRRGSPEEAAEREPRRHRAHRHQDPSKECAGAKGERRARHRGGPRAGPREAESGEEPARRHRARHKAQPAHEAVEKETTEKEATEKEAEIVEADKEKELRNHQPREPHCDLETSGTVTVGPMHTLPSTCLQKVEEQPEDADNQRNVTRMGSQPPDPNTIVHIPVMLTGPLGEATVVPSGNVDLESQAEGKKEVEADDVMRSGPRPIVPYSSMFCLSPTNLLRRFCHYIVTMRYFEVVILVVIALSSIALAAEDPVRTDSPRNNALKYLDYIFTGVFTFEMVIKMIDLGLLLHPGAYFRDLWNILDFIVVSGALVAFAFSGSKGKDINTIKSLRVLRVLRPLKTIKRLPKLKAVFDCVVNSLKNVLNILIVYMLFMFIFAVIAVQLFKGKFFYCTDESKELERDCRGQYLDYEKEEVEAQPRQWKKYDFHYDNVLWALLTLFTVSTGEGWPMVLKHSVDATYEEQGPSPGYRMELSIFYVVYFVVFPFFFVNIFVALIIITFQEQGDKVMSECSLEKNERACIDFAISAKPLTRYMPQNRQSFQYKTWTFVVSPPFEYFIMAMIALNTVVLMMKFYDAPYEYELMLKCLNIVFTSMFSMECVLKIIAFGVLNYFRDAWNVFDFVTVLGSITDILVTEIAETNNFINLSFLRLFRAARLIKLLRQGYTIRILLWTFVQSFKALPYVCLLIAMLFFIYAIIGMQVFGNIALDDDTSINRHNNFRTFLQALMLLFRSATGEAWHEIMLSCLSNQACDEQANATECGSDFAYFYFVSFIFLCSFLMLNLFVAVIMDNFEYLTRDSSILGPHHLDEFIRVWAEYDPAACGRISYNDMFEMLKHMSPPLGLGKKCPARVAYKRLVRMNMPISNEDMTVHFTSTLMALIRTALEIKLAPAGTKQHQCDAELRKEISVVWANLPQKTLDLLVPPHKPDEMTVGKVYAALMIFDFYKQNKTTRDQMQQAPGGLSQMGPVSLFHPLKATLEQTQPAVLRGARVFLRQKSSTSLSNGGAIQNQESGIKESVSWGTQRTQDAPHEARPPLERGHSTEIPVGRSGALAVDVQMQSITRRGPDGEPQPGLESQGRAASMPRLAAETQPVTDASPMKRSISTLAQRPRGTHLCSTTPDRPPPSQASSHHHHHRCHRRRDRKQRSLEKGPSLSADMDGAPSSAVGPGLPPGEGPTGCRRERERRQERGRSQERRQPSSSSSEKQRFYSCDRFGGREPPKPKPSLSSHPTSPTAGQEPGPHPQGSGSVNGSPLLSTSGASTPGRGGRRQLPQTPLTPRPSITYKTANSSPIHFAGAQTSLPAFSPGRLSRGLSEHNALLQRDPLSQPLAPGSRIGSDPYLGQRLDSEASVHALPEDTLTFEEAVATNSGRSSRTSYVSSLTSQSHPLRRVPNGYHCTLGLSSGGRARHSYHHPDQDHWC
T1 sequence (Q02410 whole entry): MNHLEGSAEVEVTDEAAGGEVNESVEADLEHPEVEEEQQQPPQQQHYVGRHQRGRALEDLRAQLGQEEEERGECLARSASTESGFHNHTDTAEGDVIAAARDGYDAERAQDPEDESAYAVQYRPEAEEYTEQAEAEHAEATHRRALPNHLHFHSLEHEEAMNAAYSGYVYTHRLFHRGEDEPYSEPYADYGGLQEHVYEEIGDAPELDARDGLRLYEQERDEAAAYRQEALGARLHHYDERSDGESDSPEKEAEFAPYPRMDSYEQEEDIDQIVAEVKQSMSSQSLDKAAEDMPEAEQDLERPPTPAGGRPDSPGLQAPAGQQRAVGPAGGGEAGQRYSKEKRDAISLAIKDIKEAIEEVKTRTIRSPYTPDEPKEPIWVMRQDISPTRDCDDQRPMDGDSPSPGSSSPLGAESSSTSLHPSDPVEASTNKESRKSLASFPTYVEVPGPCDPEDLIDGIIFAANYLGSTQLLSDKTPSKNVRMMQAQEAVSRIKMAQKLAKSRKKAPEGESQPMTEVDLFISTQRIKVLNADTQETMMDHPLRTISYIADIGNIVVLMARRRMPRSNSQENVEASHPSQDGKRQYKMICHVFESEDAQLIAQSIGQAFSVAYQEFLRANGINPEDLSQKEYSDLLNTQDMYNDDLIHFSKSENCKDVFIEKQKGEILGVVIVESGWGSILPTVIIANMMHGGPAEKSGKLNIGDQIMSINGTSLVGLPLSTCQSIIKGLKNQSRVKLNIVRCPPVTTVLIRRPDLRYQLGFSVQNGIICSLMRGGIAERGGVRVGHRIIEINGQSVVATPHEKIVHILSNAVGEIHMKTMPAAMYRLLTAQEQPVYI

O=C(NC1CCC(c2ccccc2)CC1)c1cc(-c2ccco2)nc2ccccc12 (stereo not drawn)
IC50 [1]: 25.5 µM (active) | IC50 [2]: 5.59 µM (active)

O=c1c2c([N+](=O)[O-])cc([N+](=O)[O-])cc2sn1-c1ccc(Br)cc1
IC50 [3]: 0.0725 µM (active) | IC50 [4]: 10.8 µM (active) | IC50 [5]: 12.2 µM (active) | IC50 [6]: 8.14 µM (active)

O=C(C1CCCCN1Cc1cccc(Cl)c1Cl)N1CCN(c2ccc([N+](=O)[O-])cc2)CC1 (stereo not drawn)
IC50 [7]: 4.4 µM (active) | IC50 [8]: 3.3 µM (active)

CCS(=O)(=O)C1=NSC2=NC(=O)/C(=C\c3cc(C)n(-c4cccc(OC)c4)c3C)C(=N)N21
IC50 [9]: 6.75 µM (active) | EC50 [10]: > 120 µM (not active) | EC50 [11]: > 120 µM (not active) | EC50 [12]: > 53 µM (inactive) | IC50 [13]: > 99 µM (inactive) | IC50 [14]: 5.1 µM (active) | EC50 [15]: > 120 µM (not active)

c1ccc(C2Nc3ccccc3C3OCCCC23)cc1 (stereo not drawn)
IC50 [16]: 7.36 µM (active)

N#C/C(C(N)=O)=c1/ccc2c(c1)N1C3=C(CCCC3)CC3CCCCC31N=2 (stereo not drawn)
EC50 [17]: 4.01 µM (active) | AC50 [18]: 10.2 µM (active) | IC50 [19]: 72.7 µM (inactive) | CC50 [20]: 33.5 µM (active) | IC50 [21]: > 50 µM (inactive) | IC50 [22]: > 100 µM (inconclusive) | EC50 [23]: 8.74 µM (inconclusive)
